Assays:
[1] = test system: oral ulcer induced by acetic acid in rats; test: Acetic acid-induced oral ulcer model in rats (body weight, food intake, ulcer diameter); assay type: in vivo, SD rats; conditions: 0.3 mg/kg intraperitoneal once a day
Text: Rats were anesthetized by intraperitoneal injection of 10% chloral hydrate solution. After anesthesia, 3 mm×3 mm filter paper impregnated with 100% glacial acetic acid was clung to the right buccal mucosa of rats for 45 s. After cauterization for 45 s, a round or oval white lesion of the buccal mucosa in this area was observed, indicating successful modeling.
All animals with successful modeling were randomly divided into six groups according to the ulcer area: (1) model group, 14 rats; (2) Xilei powder (15 mg/kg) group, 12 rats; (3) dexamethasone (0.3 mg/kg) group, 13 rats; (4) anemoside B4 high dose (about 60 mg/kg*3, i.e. 14 mg/suppository, one suppository/time, 3 times/day) group, 14 rats; (5) anemoside B4 medium dose (about 30 mg/kg*3, i.e. 7 mg/suppository, one suppository/time, 3 times/day) group, 14 rats; (6) anemoside B4 low dose (about 15 mg/kg*3, i.e. 3.5 mg/suppository, one suppository/time, 3 times/day) group, 14 rats; and 6 rats were included in the normal group.
24 h after modeling, drug was administrated for 3 successive days, including: local administration in Xilei powder group, once a day; intraperitoneal injection in dexamethasone group, once a day; rectal administration in anemoside B4 group, 3 times a day, and administration of blank suppository in model group, 3 times a day.
(1) General observation: daily food intake per cage was measured from the 2nd day after modeling, and animal weight was measured every 2 days. (2) Measurement of ulcer surface diameter: on the 2nd, 4th and 5th day after modeling, the diameter of ulcer surface was measured with a vernier caliper and recorded.

[2] = test system: oral ulcer induced by paclitaxel in rats; test: Paclitaxel-induced oral ulcer model in rats (food intake, ulcer diameter); assay type: in vivo, SD rats; conditions: intraperitoneal once a day for 5 days
Description: Rats were anesthetized by intraperitoneal injection of 10% chloral hydrate solution. After anesthesia, the oral ulcer model induced by chemotherapeutic drugs was established by injecting 50 μl of 6 mg/ml paclitaxel injection into the right buccal mucosa of rats.
All animals with successful modeling were randomly divided into model group, (7 rats), anemoside B4 high dose (about 60 mg/kg*2) group (7 rats), and normal group (6 rats).
24 h after modeling, in anemoside B4 group, rectal administration was performed, 1 suppository/time, twice a day, for 5 successive days; in dexamethasone group, intraperitoneal administration was performed, once a day, for 5 successive days; and in model group, blank suppository was given.
(1) General observation: On the day of modeling, rats were fasted but free access to water for 12 hours, while the diet was given quantitatively on the second day after modeling, and the food intake of rats in each cage was measured daily from the third day after modeling (the second day after administration). (2) Measurement of ulcer surface diameter: from the 2nd day after modeling, the diameter of ulcer surface was measured with a vernier caliper and recorded for 7 successive days.

C[C@@H]1C[C@H]2[C@@H]3CCC4=CC(=O)C=C[C@]4(C)[C@@]3(F)[C@@H](O)C[C@]2(C)[C@@]1(O)C(=O)CO [Dexamethasone]
Body weight ([1]; the 2nd day after modeling): 230 + 8.3 g | Diameter of oral ulcer ([1]; the 2nd day after modeling): 4.64 ± 0.38 mm | Food intake (g)/rat ([1]; the 3rd day after modeling): 13.4 ± 3.35 g | Body weight ([1]; the 4th day after modeling): 216 + 9.2 g | Diameter of oral ulcer ([1]; the 4th day after modeling): 3.16 ± 0.18 mm | Food intake (g)/rat ([1]; the 4th day after modeling): 8.2 ± 2.39 g | Diameter of oral ulcer ([1]; the 5th day after modeling): 2.78 ± 0.26 mm | Food intake (g)/rat ([1]; the 5th day after modeling): 12.1 ± 4.70 g | Body weight ([1]; the 6th day after modeling): 213 + 13.7 g | Diameter of oral ulcers ([2]; the 2nd day after modeling): 3.93 ± 0.48 mm | Diameter of oral ulcers ([2]; the 3rd day after modeling): 4.00 ± 0.40 mm | Food intake/rat ([2]; the 3rd day after modeling): 13.78 ± 3.83 g | Diameter of oral ulcers ([2]; the 4th day after modeling): 3.88 ± 0.58 mm | Food intake/rat ([2]; the 4th day after modeling): 10.61 ± 2.48 g | Diameter of oral ulcers ([2]; the 5th day after modeling): 3.50 ± 0.87 mm | Food intake/rat ([2]; the 5th day after modeling): 13.91 ± 1.92 g | Diameter of oral ulcers ([2]; the 6th day after modeling): 3.26 ± 0.84 mm | Food intake/rat ([2]; the 6th day after modeling): 19.84 ± 1.14 g | Diameter of oral ulcers ([2]; the 7th day after modeling): 2.85 ± 0.81 mm | Food intake/rat ([2]; the 7th day after modeling): 18.79 ± 0.56 g
